Laboratory results published in patent US20060063784A1, “Method of using substituted pyrazolo [1,5-a] pyrimidines” (priority 2004, published 2006).
pIC50: −log10 of the molar value. Like-named read-outs stand apart in the source and are kept apart here.

Tested on: 80S14 (p21-deficient) cells
Experiment: Cytotoxicity assay using isogenic cell lines: IC50 in 80S14 (p21-deficient) cells, SRB
Assay type: cell-based, human
Settings: for pIC50: SRB; for IC50: 80S14, 120 h
Outline: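 IC50 is the concentration halving proliferation relative to untreated controls, read from SRB absorbance (560 nm) after TCA fixation. Test agent dilutions (5 pM–50 μM or 170 pg/ml–10 μg/ml) were left on p21-deficient 80S14 cells (12,000/well, pre-incubated overnight) for 5 days at 37 °C.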

[1] = Homo sapiens, 120 h, 80S14 p21-deficient cells, 5 days incubation, read-out: IC50 for 80SI4
[2] = Homo sapiens, 120 h, 80S14 (p21-deficient) cells, 5 days, class symbols, read-out: IC50 for 80S14
[3] = Homo sapiens, read-out: IC50 for 80S14 (uM)

| Compound | pIC50 [1] | pIC50 [2] | also measured |
| --- | --- | --- | --- |
| CCC(CC)OC(=O)Nc1cccc(-c2ccnc3c(C(=O)c4cccs4)cnn23)c1 [Example 186, 1-ethylpropyl 3-[3-(thien-2-ylcarbonyl)pyrazolo[1,5-a]pyrimidin-7-yl]phenylcarbamate] | > 6.00 | – | – |
| CC1CC1COC(=O)Nc1cccc(-c2ccnc3c(C(=O)c4cccs4)cnn23)c1 (centres unmarked) [Example 187, (2-methylcyclopropyl)methyl 3-[3-(thien-2-ylcarbonyl)pyrazolo[1,5-a]pyrimidin-7-yl]phenylcarbamate] | > 6.00 | – | – |
| CC1CCC(OC(=O)Nc2cccc(-c3ccnc4c(C(=O)c5cccs5)cnn34)c2)C1 (centres unmarked) [Example 188, 3-methylcyclopentyl 3-[3-(thien-2-ylcarbonyl)pyrazolo[1,5-a]pyrimidin-7-yl]phenylcarbamate] | > 6.00 | – | – |
| C=CCC(C)OC(=O)Nc1cccc(-c2ccnc3c(C(=O)c4cccs4)cnn23)c1 (centres unmarked) [Example 189, 1-methylbut-3-enyl 3-[3-(thien-2-ylcarbonyl)pyrazolo[1,5-a]pyrimidin-7-yl]phenylcarbamate] | > 6.00 | – | – |
| CC(OC(=O)Nc1cccc(-c2ccnc3c(C(=O)c4cccs4)cnn23)c1)C1CC1 (centres unmarked) [Example 190, 1-cyclopropylethyl 3-[3-(thien-2-ylcarbonyl)pyrazolo[1,5-a]pyrimidin-7-yl]phenylcarbamate] | > 6.00 | – | – |
| CC(C)C(C)OC(=O)Nc1cccc(-c2ccnc3c(C(=O)c4cccs4)cnn23)c1 (centres unmarked) [Example 191, 1,2-dimethylpropyl 3-[3-(thien-2-ylcarbonyl)pyrazolo[1,5-a]pyrimidin-7-yl]phenylcarbamate] | > 6.00 | – | – |
| CCCC(OC(=O)Nc1cccc(-c2ccnc3c(C(=O)c4cccs4)cnn23)c1)C(C)C (centres unmarked) [Example 192, 1-isopropylbutyl 3-[3-(thien-2-ylcarbonyl)pyrazolo[1,5-a]pyrimidin-7-yl]phenylcarbamate] | 5.00 to 6.00 | – | – |
| C#CCCOC(=O)Nc1cccc(-c2ccnc3c(C(=O)c4cccs4)cnn23)c1 [Example 193, but-3-ynyl 3-[3-(thien-2-ylcarbonyl)pyrazolo[1,5-a]pyrimidin-7-yl]phenylcarbamate] | – | – | IC50 (Homo sapiens, read-out: IC50 for 80SI4 (uM)): < 1 µM |
| CCCCOC(=O)Nc1cccc(-c2c(C)cnc3c(C(=O)c4cccs4)cnn23)c1 [Example 209, butyl 3-[6-methyl-3-(thien-2-ylcarbonyl)pyrazolo[1,5-a]pyrimidin-7-yl]phenylcarbamate] | 4.30 to 5.00 | – | – |
| C=CCOC(=O)Nc1cccc(-c2c(C)cnc3c(C(=O)c4cccs4)cnn23)c1 [Example 210, allyl 3-[6-methyl-3-(thien-2-ylcarbonyl)pyrazolo[1,5-a]pyrimidin-7-yl]phenylcarbamate] | 4.30 to 5.00 | – | – |
| Cc1cnc2c(C(=O)c3cccs3)cnn2c1-c1cccc(NC(=O)OCCCl)c1 [Example 212, 2-chloroethyl 3-[6-methyl-3-(thien-2-ylcarbonyl)pyrazolo[1,5-a]pyrimidin-7-yl]phenylcarbamate] | 4.30 to 5.00 | – | – |
| C=CCCOC(=O)Nc1cccc(-c2c(C)cnc3c(C(=O)c4cccs4)cnn23)c1 [Example 213, but-3-enyl 3-[6-methyl-3-(thien-2-ylcarbonyl)pyrazolo[1,5-a]pyrimidin-7-yl]phenylcarbamate] | 4.30 to 5.00 | – | – |
| Cc1cnc2c(C(=O)c3cccs3)cnn2c1-c1cccc(NC(=O)CC(C)C)c1 [Example 215, 3-methyl-N-{3-[6-methyl-3-(thien-2-ylcarbonyl)pyrazolo[1,5-a]pyrimidin-7-yl]phenyl}butanamide] | 4.30 to 5.00 | – | – |
| Cc1cnc2c(C(=O)c3cccs3)cnn2c1-c1cccc(NC(=O)c2ccccc2)c1 [Example 216, N-{3-[6-methyl-3-(thien-2-ylcarbonyl)pyrazolo[1,5-a]pyrimidin-7-yl]phenyl}benzamide] | 4.30 to 5.00 | – | – |
| Cc1cnc2c(C(=O)c3cccs3)cnn2c1-c1cccc(NC(=O)C2CCCC2)c1 [Example 218, N-{3-[6-methyl-3-(thien-2-ylcarbonyl)pyrazolo[1,5-a]pyrimidin-7-yl]phenyl}cyclopentanecarboxamide] | 4.30 to 5.00 | – | – |
| Cc1cnc2c(C(=O)c3cccs3)cnn2c1-c1cccc(NC(=O)Cc2cccs2)c1 [Example 219, N-{3-[6-methyl-3-(thien-2-ylcarbonyl)pyrazolo[1,5-a]pyrimidin-7-yl]phenyl}-2-thien-2-ylacetamide] | 4.30 to 5.00 | – | – |
| Cc1cnc2c(C(=O)c3cccs3)cnn2c1-c1cccc(NC(=O)c2cccnc2)c1 [Example 220, N-{3-[6-methyl-3-(thien-2-ylcarbonyl)pyrazolo[1,5-a]pyrimidin-7-yl]phenyl}nicotinamide] | 4.30 to 5.00 | – | – |
| CCCCNC(=O)Nc1cccc(-c2c(C)cnc3c(C(=O)c4cccs4)cnn23)c1 [Example 221, N-butyl-N′-{3-[6-methyl-3-(thien-2-ylcarbonyl)pyrazolo[1,5-a]pyrimidin-7-yl]phenyl}urea] | 4.30 to 5.00 | – | – |
| Cc1cnc2c(C(=O)c3cccs3)cnn2c1-c1cccc(NC(=O)NC(C)C)c1 [Example 222, N-isopropyl-N′-{3-[6-methyl-3-(thien-2-ylcarbonyl)pyrazolo[1,5-a]pyrimidin-7-yl]phenyl}urea] | 4.30 to 5.00 | – | – |

| Compound | pIC50 [1] | pIC50 [2] | also measured |
| --- | --- | --- | --- |
| O=C(c1cccs1)c1cnn2c(-c3cccc(C(F)(F)F)c3)ccnc12 [Example 223, [7-(3-Trifluoromethylphenyl)pyrazolo[1,5-a]-pyrimidin-3-yl}-2-thienyl-methanone] | – | 5.00 to 6.00 | – |
| O=C(c1cccs1)c1cnn2c(-c3cccc(F)c3)ccnc12 [Example 225, [7-(3-Fluorophenyl)pyrazolo[1,5-a]-pyrimidin-3-yl}-2-thienyl-methanone] | – | 4.30 to 5.00 | – |
| O=C(c1ccco1)c1cnn2c(-c3cccc(N4CCCCC4=O)c3)ccnc12 [Example 226, 1-[3-[3-(2-Furanylcarbonyl)pyrazolo-[1,5-a]pyrimidin-7-yl]phenyl}-2-piperidinone] | – | 4.30 to 5.00 | – |
| O=C(c1ccccc1)c1cnn2c(-c3cccc(N4CCCCC4=O)c3)ccnc12 [Example 227, 1-[3-(3-Benzoylpyrazolo[1,5-a]-pyrimidin-7-yl)phenyl]-2-piperidinone] | – | 4.30 to 5.00 | – |
| O=C(c1ccco1)c1cnn2c(-c3cccc(N4CCCC4=O)c3)ccnc12 [Example 228, 1-[3-[3-(2-Furanylcarbonyl)pyrazolo-[1,5-a]pyrimidin-7-yl]phenyl]-2-pyrrolidinone] | – | 4.30 to 5.00 | – |
| O=C(c1ccccc1)c1cnn2c(-c3cccc(N4CCCC4=O)c3)ccnc12 [Example 229, 1-[3-(3-Benzoylpyrazolo[1,5-a]-pyrimidin-7-yl)phenyl]-2-pyrrolidinone] | – | 4.30 to 5.00 | – |
| O=C(c1ccccc1)c1cnn2c(-c3cccc(NC(=O)C4CC4)c3)ccnc12 [Example 230, N-[3-(3-Benzoylpyrazolo-[1,5-a]pyrimidin-7-yl)phenyl]-cyclopropanecarboxamide] | – | 5.00 to 6.00 | – |
| CNc1cccc(-c2ccnc3c(C(=O)c4ccccc4)cnn23)c1 [Example 231, [7-[3-(Methylamino)phenyl]pyrazolo[1,5-a]-pyrimidin-3-yl}phenyl-methanone] | – | 4.30 to 5.00 | – |
| CN(C(=O)C1CCC1)c1cccc(-c2ccnc3c(C(=O)c4ccccc4)cnn23)c1 [Example 232, N-[3-(3-Benzoylpyrazolo-[1,5-a]pyrimidin-7-yl)phenyl]-N-methylcyclobutanecarboxamide] | – | 4.30 to 5.00 | – |
| CN(C(=O)C1CCC1)c1cccc(-c2ccnc3c(C(=O)c4ccco4)cnn23)c1 [Example 233, N-[3-[3-(2-Furanylcarbonyl)-pyrazolo[1,5-a]pyrimidin-7-yl]phenyl}-N-methyl-cyclobutanecarboxamide] | – | 4.30 to 5.00 | – |
| CN(C(=O)C1CCC1)c1cccc(-c2ccnc3c(C#N)cnn23)c1 [Example 234, N-[3-(3-Cyanopyrazolo[1,5-a]-pyrimidin-7-yl)phenyl]-N-methyl-cyclobutanecarboxamide] | – | 5.00 to 6.00 | – |
| CN(C(=O)C1CC1)c1cccc(-c2ccnc3c(C(=O)c4ccccc4)cnn23)c1 [Example 236, N-[3-(3-benzoylpyrazolo[1,5-a]-pyrimidin-7-yl)phenyl]-N-methyl-cyclopropanecarboxamide] | – | 4.30 to 5.00 | – |
| CCC(=O)N(C)c1cccc(-c2ccnc3c(C(=O)c4cccs4)cnn23)c1 [Example 237, N-Methyl-N-[3-[3-(2-thienylcarbonyl)-pyrazolo[1,5-a]pyrimidin-7-yl]phenyl}-propanamide] | – | – | IC50 [3]: 1 to 10 µM |
| CC(=O)N(C)c1cccc(-c2ccnc3c(C(=O)c4cccs4)cnn23)c1 [Example 238, N-Methyl-N-[3-[3-(2-thienylcarbonyl)-pyrazolo[1,5-a]pyrimidin-7-yl]phenyl}-acetamide] | – | – | IC50 [3]: 10 to 50 µM |
| CN(C(=O)O)c1cccc(-c2ccnc3c(C(=O)c4cccs4)cnn23)c1 [Example 239, Methyl [3-[3-(2-thienylcarbonyl)pyrazolo-[1,5-a]pyrimidin-7-yl]phenyl}-carbamic acid] | – | 5.00 to 6.00 | – |
| CCOC(=O)c1cnn2c(-c3cccc(NC(=O)C4CCC4)c3)ccnc12 [Example 240, Ethyl 7-[3-[(cyclobutylcarbonyl)amino]phenyl]-pyrazolo[1,5-a]pyrimidine-3-carboxylic acid] | – | – | pIC50 (80S14 (p21-deficient) cells, 5 days, class symbols, read-out: IC50 for 80S14): 4.30 to 5.00 |
| CC(C)C(=O)Nc1cccc(-c2ccnc3c(C(=O)c4ccco4)cnn23)c1 [Example 241, N-[3-[3-(2-Furanylcarbonyl)pyrazolo-[1,5-a]pyrimidin-7-yl]phenyl}-2-methyl-propanamide] | – | – | IC50 [3]: 1 to 10 µM |
| CC(C)(C)C(=O)Nc1cccc(-c2ccnc3c(C(=O)c4ccccc4)cnn23)c1 [Example 242, N-[3-(3-Benzoylpyrazolo[1,5-a]-pyrimidin-7-yl)phenyl]-2,2-dimethyl-propanamide] | – | – | IC50 [3]: 1 to 10 µM |
| CC(C)(C)C(=O)Nc1cccc(-c2ccnc3c(C(=O)c4ccco4)cnn23)c1 [Example 243, N-[3-[3-(2-Furanylcarbonyl)pyrazolo-[1,5-a]pyrimidin-7-yl]phenyl}-2,2-dimethyl-propanamide] | – | – | IC50 [3]: 1 to 10 µM |
